Consider 17 molecules from patent publication US11267822B2, “BET bromodomain protein degraders with cleavable linkers” (THE REGENTS OF THE UNIVERSITY OF MICHIGAN, priority 2017, dated 2022).

Molecules are shown by their SMILES. Where “and” joins values, the source holds several entries; their conditions need not be identical. Equal entries are not always repeated.

One test deals with MDA-MB-231. Nature of the test: Cell growth inhibition, CellTiter-Glo Luminescent Cell Viability Assay, MDA-MB-231. The class given is cell-based. Conditions: MDA-MB-231 cells, 4 days. The procedure: (§1) Cell growth inhibitory activity of representative Compounds of the Disclosure was determined using the CellTiter-Glo® Luminescent Cell Viability Assay. Cells were seeded in 384-well white opaque cell culture plates at a density of 2,000 cells/well with serially diluted compounds and incubated at 37° C. in an atmosphere of 95% air and 5% CO2 for 4 days. Cell viability was determined using the CellTiter-Glo® Luminescent Cell Viability Assay Kit (Promega, Madison, Wis.) according to the manufacture's instruction. Briefly, a volume of CellTiter-Glo® Reagent equal to the volume of cell culture medium was added to each well, and then the plates were incubated at room temperature for 10-20 minutes. The luminescent signal was measured using a Tecan Infinite M1000 multimode microplate reader (Tecan, Morrisville, N.C.). The half maximal inhibitory concentration (IC50) in Table 3 was calculated using the GraphPad Prism 5 software (GraphPad Software, La Jolla, Calif.).
Background: ATP-based viability assays read luminescence as a measure of living cells.

The next test deals with MOLM13. Nature of the test: Cell growth inhibition, CellTiter-Glo Luminescent Cell Viability Assay, MOLM13. The class given is cell-based. The note with it: Homo sapiens, MOLM-13, 96 h, MOLM13 cells, 4 days. The method, then: as §1

What is called IC50 is the concentration needed to halve the response being measured. A high value points to weaker potency. Consider `Cc1nnc2n1-c1sc(C#Cc3cnn(CCOC(=O)CCC#Cc4cccc5c4CN(C4CCC(=O)NC4=O)C5=O)c3)c(Cc3ccccc3)c1COC2` (stereo not shown) [compound 31, 2-(4-((3-benzyl-9-methyl-4H,6H-thieno[2,3-e][1,2,4]triazolo[3,4-c][1,4]oxazepin-2-yl)ethynyl)-1H-pyrazol-1-yl)ethyl 5-(2-(2,6-dioxopiperidin-3-yl)-1-oxoisoindolin-4-yl)pent-4-ynoate], for which the IC50 in the test with MDA-MB-231 is 9.1 nM and 5.6 nM; with MOLM13, 1.3 nM. Take `Cc1c(C#Cc2cnn(CCCC(=O)OCCOCCCN3CCC(Nc4cccc5c4CN(C4CCC(=O)NC4=O)C5=O)CC3)c2)sc2c1C(c1ccc(Cl)cc1)=N[C@@H](CC(=O)N1CCN(C)CC1)c1nnc(C)n1-2` (stereo partly drawn) [compound 2, 2-(3-(4-((2-(2,6-dioxopiperidin-3-yl)-1-oxoisoindolin-4-yl)amino)piperidin-1-yl)propoxy)ethyl 4-(4-(((S)-4-(4-chlorophenyl)-3,9-dimethyl-6-(2-(4-methylpiperazin-1-yl)-2-oxoethyl)-6H-thieno[3,2-f][1,2,4]triazolo[4,3-a][1,4]diazepin-2-yl)ethynyl)-1H-pyrazol-1-yl)butanoate]: the half-maximal inhibitory concentration (IC50) with MDA-MB-231 (Homo sapiens, MDA-MB-231, 96 h) was found to be 19.4 nM; in the test with MOLM13, 7.5 nM. For `Cc1nnc2n1-c1sc(C#Cc3cnn(CCCC(=O)OCCOCCN4CCC(Nc5cccc6c5CN(C5CCC(=O)NC5=O)C6=O)CC4)c3)c(Cc3ccccc3)c1COC2` (stereo not shown) [compound 26, 2-(2-(4-((2-(2,6-dioxopiperidin-3-yl)-1-oxoisoindolin-4-yl)amino)piperidin-1-yl)ethoxy)ethyl 4-(4-((3-benzyl-9-methyl-4H,6H-thieno[2,3-e][1,2,4]triazolo[3,4-c][1,4]oxazepin-2-yl)ethynyl)-1H-pyrazol-1-yl)butanoate], half-maximal inhibition in the test with MDA-MB-231 (Homo sapiens, MDA-MB-231, 96 h) (IC50) was put at 24.1 nM. For `Cc1nnc2n1-c1sc(C#Cc3cnn(CCCC(=O)OCCCN4CCN(c5cccc6c5C(=O)N(C5CCC(=O)NC5=O)C6=O)CC4)c3)c(Cc3ccccc3)c1COC2` (stereo not shown) [compound 24, 3-(4-(2-(2,6-dioxopiperidin-3-yl)-1,3-dioxoisoindolin-4-yl)piperazin-1-yl)propyl 4-(4-((3-benzyl-9-methyl-4H,6H-thieno[2,3-e][1,2,4]triazolo[3,4-c][1,4]oxazepin-2-yl)ethynyl)-1H-pyrazol-1-yl)butanoate], inhibition in the test on MOLM13 was half-maximal at 17.6 nM (IC50).

For `Cc1nnc2n1-c1sc(C#Cc3cnn(CCCC(=O)OCCCc4cccc5c4CN(C4CCC(=O)NC4=O)C5=O)c3)c(Cc3ccccc3)c1COC2` (stereo not shown) [compound 36, 3-(2-(2,6-dioxopiperidin-3-yl)-1-oxoisoindolin-4-yl)propyl 4-(4-((3-benzyl-9-methyl-4H,6H-thieno[2,3-e][1,2,4]triazolo[3,4-c][1,4]oxazepin-2-yl)ethynyl)-1H-pyrazol-1-yl)butanoate], the IC50 in the test with MOLM13 turned out to be 4.6 nM. In the test on MOLM13, `Cc1nnc2n1-c1sc(C#Cc3cnn(CCCOC(=O)CCCc4cccc5c4CN(C4CCC(=O)NC4=O)C5=O)c3)c(Cc3ccccc3)c1COC2` (stereo not shown) [compound 20, 3-(4-((3-benzyl-9-methyl-4H,6H-thieno[2,3-e][1,2,4]triazolo[3,4-c][1,4]oxazepin-2-yl)ethynyl)-1H-pyrazol-1-yl)propyl 4-(2-(2,6-dioxopiperidin-3-yl)-1-oxoisoindolin-4-yl)butanoate] displayed an IC50 of 22.6 nM. Same read-out and setting: under `Cc1nnc2n1-c1sc(C#Cc3cnn(CCCC(=O)OCCCNc4cccc5c4CN(C4CCC(=O)NC4=O)C5=O)c3)c(Cc3ccccc3)c1COC2` (stereo not shown) [Cpd. No. 18, 3-((2-(2,6-dioxopiperidin-3-yl)-1-oxoisoindolin-4-yl)amino)propyl 4-(4-((3-benzyl-9-methyl-4H,6H-thieno[2,3-e][1,2,4]triazolo[3,4-c][1,4]oxazepin-2-yl)ethynyl)-1H-pyrazol-1-yl)butanoate] stands 7.3 nM; under `Cc1c(C#Cc2cnn(CCCC(=O)OCCCOc3cccc4c3CN(C3CCC(=O)NC3=O)C4=O)c2)sc2c1C(c1ccc(Cl)cc1)=N[C@@H](CC(=O)N1CCN(C)CC1)c1nnc(C)n1-2` (stereo partly drawn) [compound 9, 3-((2-(2,6-dioxopiperidin-3-yl)-1-oxoisoindolin-4-yl)oxy)propyl 4-(4-(((S)-4-(4-chlorophenyl)-3,9-dimethyl-6-(2-(4-methylpiperazin-1-yl)-2-oxoethyl)-6H-thieno[3,2-f][1,2,4]triazolo[4,3-a][1,4]diazepin-2-yl)ethynyl)-1H-pyrazol-1-yl)butanoate], 0.2 nM. In the case of `Cc1nnc2n1-c1sc(C#Cc3cnn(CC(=O)OCC#Cc4cccc5c4CN(C4CCC(=O)NC4=O)C5=O)c3)c(Cc3ccccc3)c1COC2` (stereo not shown) [compound 39, 3-(2-(2,6-dioxopiperidin-3-yl)-1-oxoisoindolin-4-yl)prop-2-yn-1-yl 2-(4-((3-benzyl-9-methyl-4H,6H-thieno[2,3-e][1,2,4]triazolo[3,4-c][1,4]oxazepin-2-yl)ethynyl)-1H-pyrazol-1-yl)acetate], the IC50 in the test with MDA-MB-231 (Homo sapiens, MDA-MB-231, 96 h) is > 100 nM. For `Cc1c(C#Cc2cnn(CCCC(=O)OCCOCCOCCN3CCC(Nc4cccc5c4CN(C4CCC(=O)NC4=O)C5=O)CC3)c2)sc2c1C(c1ccc(Cl)cc1)=N[C@@H](CC(=O)N1CCN(C)CC1)c1nnc(C)n1-2` (stereo partly drawn) [compound 14, 2-(2-(2-(4-((2-(2,6-dioxopiperidin-3-yl)-1-oxoisoindolin-4-yl)amino)piperidin-1-yl)ethoxy)ethoxy)ethyl 4-(4-(((S)-4-(4-chlorophenyl)-3,9-dimethyl-6-(2-(4-methylpiperazin-1-yl)-2-oxoethyl)-6H-thieno[3,2-f][1,2,4]triazolo[4,3-a][1,4]diazepin-2-yl)ethynyl)-1H-pyrazol-1-yl)butanoate], the half-inhibitory concentration (IC50) with MDA-MB-231 (Homo sapiens, MDA-MB-231, 96 h) is 20.7 nM. On the same count and under the same terms, with `Cc1nnc2n1-c1sc(C#Cc3cnn(CCCC(=O)OCCOCCOCCN4CCC(Nc5cccc6c5CN(C5CCC(=O)NC5=O)C6=O)CC4)c3)c(Cc3ccccc3)c1COC2` (stereo not shown) [compound 27, 2-(2-(2-(4-((2-(2,6-dioxopiperidin-3-yl)-1-oxoisoindolin-4-yl)amino)piperidin-1-yl)ethoxy)ethoxy)ethyl 4-(4-((3-benzyl-9-methyl-4H,6H-thieno[2,3-e][1,2,4]triazolo[3,4-c][1,4]oxazepin-2-yl)ethynyl)-1H-pyrazol-1-yl)butanoate] the figure was 23.3 nM. Take `Cc1nnc2n1-c1sc(C#Cc3cnn(CCCC(=O)OCCCCc4cccc5c4CN(C4CCC(=O)NC4=O)C5=O)c3)c(Cc3ccccc3)c1COC2` (stereo not shown) [compound 35, 4-(2-(2,6-dioxopiperidin-3-yl)-1-oxoisoindolin-4-yl)butyl 4-(4-((3-benzyl-9-methyl-4H,6H-thieno[2,3-e][1,2,4]triazolo[3,4-c][1,4]oxazepin-2-yl)ethynyl)-1H-pyrazol-1-yl)butanoate]: the IC50 in the test on MOLM13 is 4.9 nM. As for `Cc1nnc2n1-c1sc(C#Cc3cnn(CC(=O)OCCCOc4cccc5c4CN(C4CCC(=O)NC4=O)C5=O)c3)c(Cc3ccccc3)c1COC2` (stereo not shown) [compound 37, 3-((2-(2,6-dioxopiperidin-3-yl)-1-oxoisoindolin-4-yl)oxy)propyl 2-(4-((3-benzyl-9-methyl-4H,6H-thieno[2,3-e][1,2,4]triazolo[3,4-c][1,4]oxazepin-2-yl)ethynyl)-1H-pyrazol-1-yl)acetate], half-maximal inhibition with MOLM13 (IC50) required 9.1 nM. For the molecule `Cc1c(C#Cc2cnn(CCCC(=O)OCCOCCN3CCC(Nc4cccc5c4CN(C4CCC(=O)NC4=O)C5=O)CC3)c2)sc2c1C(c1ccc(Cl)cc1)=N[C@@H](CC(=O)N1CCN(C)CC1)c1nnc(C)n1-2` (stereo partly drawn) [compound 13, 2-(2-(4-((2-(2,6-dioxopiperidin-3-yl)-1-oxoisoindolin-4-yl)amino)piperidin-1-yl)ethoxy)ethyl 4-(4-(((S)-4-(4-chlorophenyl)-3,9-dimethyl-6-(2-(4-methylpiperazin-1-yl)-2-oxoethyl)-6H-thieno[3,2-f][1,2,4]triazolo[4,3-a][1,4]diazepin-2-yl)ethynyl)-1H-pyrazol-1-yl)butanoate], the IC50 with MDA-MB-231 (Homo sapiens, MDA-MB-231, 96 h) was found to be 12.2 nM. In the case of `Cc1c(C#Cc2cnn(CCCC(=O)OCCOCCOCCOc3cccc4c3CN(C3CCC(=O)NC3=O)C4=O)c2)sc2c1C(c1ccc(Cl)cc1)=N[C@@H](CC(=O)N1CCN(C)CC1)c1nnc(C)n1-2` (stereo partly drawn) [compound 10, 2-(2-(2-((2-(2,6-dioxopiperidin-3-yl)-1-oxoisoindolin-4-yl)oxy)ethoxy)ethoxy)ethyl 4-(4-(((S)-4-(4-chlorophenyl)-3,9-dimethyl-6-(2-(4-methylpiperazin-1-yl)-2-oxoethyl)-6H-thieno[3,2-f][1,2,4]triazolo[4,3-a][1,4]diazepin-2-yl)ethynyl)-1H-pyrazol-1-yl)butanoate], in the test on MOLM13, the IC50 stood at 4 nM. In turn, `Cc1nnc2n1-c1sc(C#Cc3cnn(CC(=O)OCCC#Cc4cccc5c4CN(C4CCC(=O)NC4=O)C5=O)c3)c(Cc3ccccc3)c1COC2` (stereo not shown) [compound 40, 4-(2-(2,6-dioxopiperidin-3-yl)-1-oxoisoindolin-4-yl)but-3-yn-1-yl 2-(4-((3-benzyl-9-methyl-4H,6H-thieno[2,3-e][1,2,4]triazolo[3,4-c][1,4]oxazepin-2-yl)ethynyl)-1H-pyrazol-1-yl)acetate] registered a half-inhibitory concentration (IC50) in the test with MDA-MB-231 (Homo sapiens, MDA-MB-231, 96 h) of 24.3 nM. Molecule `Cc1nnc2n1-c1sc(C#Cc3cnn(CCCOC(=O)CCCCc4cccc5c4CN(C4CCC(=O)NC4=O)C5=O)c3)c(Cc3ccccc3)c1COC2` (stereo not shown) [compound 19, 3-(4-((3-benzyl-9-methyl-4H,6H-thieno[2,3-e][1,2,4]triazolo[3,4-c][1,4]oxazepin-2-yl)ethynyl)-1H-pyrazol-1-yl)propyl 5-(2-(2,6-dioxopiperidin-3-yl)-1-oxoisoindolin-4-yl)pentanoate] showed an IC50 in the test on MOLM13 of 7.3 nM.
